Laboratory results taken from US8003785B2 (Takeda Pharmaceutical Company Limited, priority 2008, dated 2011).

biological target: T1, PLK1 (Homo sapiens, UniProt P53350); test: Biochemical Characterization Assay: HTRF kinase assay, GST-PLK1 phosphorylation of GST-p53; conditions: GST-PLK1, GST-p53 substrate, ATP
T1 construct: Full-length, active GST-PLK1 is purified from Sf9 insect cells; made in house; host or cells: Sf9 insect cells
Experimental: Biochemical Characterization Assay
Full-length, active GST-PLK1 is purified from Sf9 insect cells, and full-length GST-p53 is purified from E. coli. Anti-phospho p53 antibody is from Cell Signaling Technology. Europium-conjugated anti-rabbit antibody is from PerkinElmer Life and Analytical Sciences. APC-conjugated anti-GST antibody is from Prozyme.
Six microliters of GST-PLK1 (3 ug/mL) in Kinase Assay Buffer are then added and the solution incubated at 37° C. for 35 minutes. Six microliters of solution containing 43 mM EDTA to stop the reaction and a 1:600 dilution of anti-phospho-p53 antibody in 20 mM HEPES pH 7, 50 mM NaCl, and 0.5 mg/mL BSA (Antibody Binding Buffer) are added and the solution incubated at 37° C. for 30 minutes. […] The HTRF signal is read on an Envision reader from PerkinElmer Life and Analytical Sciences.

T1 sequence (P53350 whole entry): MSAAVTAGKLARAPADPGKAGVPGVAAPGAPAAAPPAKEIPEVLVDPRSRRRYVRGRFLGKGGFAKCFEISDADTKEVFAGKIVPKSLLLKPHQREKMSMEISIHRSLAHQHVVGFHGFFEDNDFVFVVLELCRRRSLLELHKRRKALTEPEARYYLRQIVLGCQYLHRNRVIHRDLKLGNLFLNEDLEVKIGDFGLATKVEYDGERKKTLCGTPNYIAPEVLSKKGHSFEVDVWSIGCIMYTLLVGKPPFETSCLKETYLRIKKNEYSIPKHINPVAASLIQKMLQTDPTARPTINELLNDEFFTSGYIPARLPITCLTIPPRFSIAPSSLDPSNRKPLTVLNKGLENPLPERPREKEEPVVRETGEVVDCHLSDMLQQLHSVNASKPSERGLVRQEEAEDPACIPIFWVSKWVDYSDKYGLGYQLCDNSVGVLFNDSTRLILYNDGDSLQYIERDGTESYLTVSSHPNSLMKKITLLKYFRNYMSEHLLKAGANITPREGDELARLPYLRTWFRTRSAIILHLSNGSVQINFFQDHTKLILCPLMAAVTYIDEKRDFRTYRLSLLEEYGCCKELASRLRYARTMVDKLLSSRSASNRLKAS

IC50 [nM]	SMILES
1 to 50	COc1cc(C(=O)NCCN2CCCC2)ccc1Nc1ncc2c(n1)N(C1CCCC1)CC(F)(F)C(=O)N2C [Example I-45, 4-(9-cyclopentyl-7,7-difluoro-5-methyl-6-oxo-6,7,8,9-tetrahydro-5H-pyrimido[4,5-b][1,4]diazepin-2-ylamino)-3-methoxy-N-(2-pyrrolidin-1-yl-ethyl)-benzamide]
1 to 50	COc1cc(C(=O)NCCCNC(C)C)ccc1Nc1ncc2c(n1)N(C1CCCC1)CC(F)(F)C(=O)N2C [Example I-46, 4-(9-cyclopentyl-7,7-difluoro-5-methyl-6-oxo-6,7,8,9-tetrahydro-5H-pyrimido[4,5-b][1,4]diazepin-2-ylamino)-N-(3-isopropylamino-propyl)-3-methoxy-benzamide]
1 to 50	COc1cc(C(=O)NCCN2CCN(C)CC2)ccc1Nc1ncc2c(n1)N(C1CCCC1)CC(F)(F)C(=O)N2C [Example I-47, 4-(9-cyclopentyl-7,7-difluoro-5-methyl-6-oxo-6,7,8,9-tetrahydro-5H-pyrimido[4,5-b][1,4]diazepin-2-ylamino)-3-methoxy-N-[2-(4-methyl-piperazin-1-yl)-ethyl]-benzamide]
1 to 50	COc1cc(C(=O)NCCN)ccc1Nc1ncc2c(n1)N(C1CCCC1)CC(F)(F)C(=O)N2C [Example I-48, N-(2-amino-ethyl)-4-(9-cyclopentyl-7,7-difluoro-5-methyl-6-oxo-6,7,8,9-tetrahydro-5H-pyrimido[4,5-b][1,4]diazepin-2-ylamino)-3-methoxy-benzamide]
1 to 50	COc1cc(C(=O)NCCN2CCNCC2)ccc1Nc1ncc2c(n1)N(C1CCCC1)CC(F)(F)C(=O)N2C [Example I-49, 4-(9-cyclopentyl-7,7-difluoro-5-methyl-6-oxo-6,7,8,9-tetrahydro-5H-pyrimido[4,5-b][1,4]diazepin-2-ylamino)-3-methoxy-N-(2-piperazin-1-yl-ethyl)-benzamide]
1 to 50	COc1cc(C(=O)NCCN(C)C)ccc1Nc1ncc2c(n1)N(C1CCCC1)CC(F)(F)C(=O)N2C [Example I-52, 4-(9-cyclopentyl-7,7-difluoro-5-methyl-6-oxo-6,7,8,9-tetrahydro-5H-pyrimido[4,5-b][1,4]diazepin-2-ylamino)-N-(2-dimethylamino-ethyl)-3-methoxy-benzamide]
1 to 50	COc1cc(C(=O)NCCCNC2CCCCC2)ccc1Nc1ncc2c(n1)N(C1CCCC1)CC(F)(F)C(=O)N2C [Example I-53, N-(3-cyclohexylamino-propyl)-4-(9-cyclopentyl-7,7-difluoro-5-methyl-6-oxo-6,7,8,9-tetrahydro-5H-pyrimido[4,5-b][1,4]diazepin-2-ylamino)-3-methoxy-benzamide]
1 to 50	COc1cc(C(=O)NCC(C)(C)CN(C)C)ccc1Nc1ncc2c(n1)N(C1CCCC1)CC(F)(F)C(=O)N2C [Example I-60, 4-(9-cyclopentyl-7,7-difluoro-5-methyl-6-oxo-6,7,8,9-tetrahydro-5H-pyrimido[4,5-b][1,4]diazepin-2-ylamino)-N-(3-dimethylamino-2,2-dimethyl-propyl)-3-methoxy-benzamide]
1 to 50	COc1cc(C(=O)NCCCn2ccnc2)ccc1Nc1ncc2c(n1)N(C1CCCC1)CC(F)(F)C(=O)N2C [Example I-61, 4-(9-cyclopentyl-7,7-difluoro-5-methyl-6-oxo-6,7,8,9-tetrahydro-5H-pyrimido[4,5-b][1,4]diazepin-2-ylamino)-N-(3-imidazol-1-yl-propyl)-3-methoxy-benzamide]
1 to 50	CCN1CCC(NC(=O)c2ccc(Nc3ncc4c(n3)N(C3CCCC3)CC(F)(F)C(=O)N4C)c(OC)c2)CC1 [Example I-67, 4-(9-cyclopentyl-7,7-difluoro-5-methyl-6-oxo-6,7,8,9-tetrahydro-5H-pyrimido[4,5-b][1,4]diazepin-2-ylamino)-N-(1-ethyl-piperidin-4-yl)-3-methoxy-benzamide]
1 to 50	COc1cc(C(=O)N[C@H]2CC[C@@H](O)CC2)ccc1Nc1ncc2c(n1)N(C1CCCC1)CC(F)(F)C(=O)N2C [Example I-68, cis-4-(9-cyclopentyl-7,7-difluoro-5-methyl-6-oxo-6,7,8,9-tetrahydro-5H-pyrimido[4,5-b][1,4]diazepin-2-ylamino)-N-(4-hydroxy-cyclohexyl)-3-methoxy-benzamide]
1 to 50	COc1cc(C(=O)N[C@H]2CC[C@H](O)CC2)ccc1Nc1ncc2c(n1)N(C1CCCC1)CC(F)(F)C(=O)N2C [Example I-69, trans-4-(9-cyclopentyl-7,7-difluoro-5-methyl-6-oxo-6,7,8,9-tetrahydro-5H-pyrimido[4,5-b][1,4]diazepin-2-ylamino)-N-(4-hydroxy-cyclohexyl)-3-methoxy-benzamide]
1 to 50	COc1cc(C(=O)NC2CCNCC2)ccc1Nc1ncc2c(n1)N(C1CCCC1)CC(F)(F)C(=O)N2C [Example I-72, 4-(9-cyclopentyl-7,7-difluoro-5-methyl-6-oxo-6,7,8,9-tetrahydro-5H-pyrimido[4,5-b][1,4]diazepin-2-ylamino)-3-methoxy-N-piperidin-4-yl-benzamide]
1 to 50	COc1cc(C(=O)NCCCN)ccc1Nc1ncc2c(n1)N(C1CCCC1)CC(F)(F)C(=O)N2C [Example I-74, N-(3-amino-propyl)-4-(9-cyclopentyl-7,7-difluoro-5-methyl-6-oxo-6,7,8,9-tetrahydro-5H-pyrimido[4,5-b][1,4]diazepin-2-ylamino)-3-methoxy-benzamide]

Further lines, the compound ahead of its results:

SMILES	IC50 [nM]
COc1cc(C(=O)NC2CC3CCC(C2)N3C)ccc1Nc1ncc2c(n1)N(C1CCCC1)CC(F)(F)C(=O)N2C (stereo not drawn) [Example I-50, 4-(9-cyclopentyl-7,7-difluoro-5-methyl-6-oxo-6,7,8,9-tetrahydro-5H-pyrimido[4,5-b][1,4]diazepin-2-ylamino)-3-methoxy-N-(8-methyl-8-aza-bicyclo[3.2.1]oct-3-yl)-benzamide]	1 to 50
COc1cc(C(=O)NCCc2c[nH]c3ccccc23)ccc1Nc1ncc2c(n1)N(C1CCCC1)CC(F)(F)C(=O)N2C [Example I-51, 4-(9-cyclopentyl-7,7-difluoro-5-methyl-6-oxo-6,7,8,9-tetrahydro-5H-pyrimido[4,5-b][1,4]diazepin-2-ylamino)-N-[2-(1H-indol-3-yl)-ethyl]-3-methoxy-benzamide]	51 to 500
COc1cc(C(=O)NC2CCN(c3ccncc3)CC2)ccc1Nc1ncc2c(n1)N(C1CCCC1)CC(F)(F)C(=O)N2C [Example I-62, 4-(9-cyclopentyl-7,7-difluoro-5-methyl-6-oxo-6,7,8,9-tetrahydro-5H-pyrimido[4,5-b][1,4]diazepin-2-ylamino)-3-methoxy-N-(3,4,5,6-tetrahydro-2H-[1,4′]bipyridinyl-4-yl)-benzamide]	1 to 50
COc1cc(C(=O)NC2CCN(C3CCCC3)CC2)ccc1Nc1ncc2c(n1)N(C1CCCC1)CC(F)(F)C(=O)N2C [Example I-63, 4-(9-cyclopentyl-7,7-difluoro-5-methyl-6-oxo-6,7,8,9-tetrahydro-5H-pyrimido[4,5-b][1,4]diazepin-2-ylamino)-N-(1-cyclopentyl-piperidin-4-yl)-3-methoxy-benzamide]	1 to 50
COc1cc(C(=O)NC2CCN(C(C)C)CC2)ccc1Nc1ncc2c(n1)N(C1CCCC1)CC(F)(F)C(=O)N2C [Example I-64, 4-(9-cyclopentyl-7,7-difluoro-5-methyl-6-oxo-6,7,8,9-tetrahydro-5H-pyrimido[4,5-b][1,4]diazepin-2-ylamino)-N-(1-isopropyl-piperidin-4-yl)-3-methoxy-benzamide]	1 to 50
COc1cc(C(=O)NC2CC(C)(C)NC(C)(C)C2)ccc1Nc1ncc2c(n1)N(C1CCCC1)CC(F)(F)C(=O)N2C [Example I-65, 4-(9-cyclopentyl-7,7-difluoro-5-methyl-6-oxo-6,7,8,9-tetrahydro-5H-pyrimido[4,5-b][1,4]diazepin-2-ylamino)-3-methoxy-N-(2,2,6,6-tetramethyl-piperidin-4-yl)-benzamide]	1 to 50
COc1cc(C(=O)NC2CCN(C3CC3)CC2)ccc1Nc1ncc2c(n1)N(C1CCCC1)CC(F)(F)C(=O)N2C [Example I-66, 4-(9-cyclopentyl-7,7-difluoro-5-methyl-6-oxo-6,7,8,9-tetrahydro-5H-pyrimido[4,5-b][1,4]diazepin-2-ylamino)-N-(1-cyclopropyl-piperidin-4-yl)-3-methoxy-benzamide]	1 to 50
COc1cc(C(=O)NC2CCN(C(=O)OCC3c4ccccc4-c4ccccc43)CC2)ccc1Nc1ncc2c(n1)N(C1CCCC1)CC(F)(F)C(=O)N2C [Example I-70, 4-[4-(9-cyclopentyl-7,7-difluoro-5-methyl-6-oxo-6,7,8,9-tetrahydro-5H-pyrimido[4,5-b][1,4]diazepin-2-ylamino)-3-methoxy-benzoylamino]-piperidine-1-carboxylic acid 9H-fluoren-9-ylmethyl ester]	1 to 50
COc1cc(C(=O)NC2CCN(C(=O)OC(C)(C)C)CC2)ccc1Nc1ncc2c(n1)N(C1CCCC1)CC(F)(F)C(=O)N2C [Example I-71, 4-[4-(9-cyclopentyl-7,7-difluoro-5-methyl-6-oxo-6,7,8,9-tetrahydro-5H-pyrimido[4,5-b][1,4]diazepin-2-ylamino)-3-methoxy-benzoylamino]-piperidine-1-carboxylic acid tert-butyl ester]	51 to 500
COc1cc(C(=O)NCCCNC(=O)OCC2c3ccccc3-c3ccccc32)ccc1Nc1ncc2c(n1)N(C1CCCC1)CC(F)(F)C(=O)N2C [Example I-73, {3-[4-(9-cyclopentyl-7,7-difluoro-5-methyl-6-oxo-6,7,8,9-tetrahydro-5H-pyrimido[4,5-b][1,4]diazepin-2-ylamino)-3-methoxy-benzoylamino]-propyl}-carbamic acid 9H-fluoren-9-ylmethyl ester]	51 to 500
